# Measurements published in article PMC12274739, “Differential substrate degradation by super-degron: EGFP in wild-type mouse cells, PD-1 requires CRBN humanization” (iScience, 2025).
# Where two headings read alike, the source gives them in different places. Residues, ends and D or L forms follow the SMILES beside them. *: point of attachment. Cbz = O=C(OCc1ccccc1)*
# How the values were obtained:
# EGFP-IKZF = EGFP-IKZF (UniProt P42212+Q8C7D2, F64L/H231L/INS1V/S65T); type: cell-based, mouse; settings: for Bottom, EGFP-IKZF / LogDC50, EGFP-IKZF / DC50: stable; for DC50: read-out: DC50, EGFP-IKZF
# EGFP-ZFP91 = EGFP-ZFP91 (UniProt P42212+Q8C7D2, F64L/H231L/INS1V/S65T); type: cell-based, mouse; settings: CrbnI391V/I391V mESCs; for Bottom, EGFP-ZFP91 / LogDC50, EGFP-ZFP91 / DC50: stable, Figure 5E; for DC50: read-out: DC50, EGFP-ZFP91
# EGFP-SD = EGFP-SD (Aequorea victoria, UniProt P42212, F64L/H231L/S65T); type: cell-based, mouse; settings: stable; for DC50: read-out: DC50, EGFP-SD
# [1] = system: degradation of SD-tagged EGFP; assay: Inhibition of IBR-induced degradation of SD-EGFP or EGFP-SD in B6J-S1 by pathway inhibitors; type: cell-based, mouse; settings: B6J-S1, IBR fixed at 1 μM, 24 h
# [2] = in vivo; cited from earlier work
# [3] = CrbnI391V/I391V mESCs, Figure 5E
compound,measurement,setting,value
"Cc1nc2cccc(N)c2c(=O)n1C1CCC(=O)NC1=O (centres unmarked) [AVA, avadomide]","Bottom, EGFP-IKZF","EGFP-IKZF; B6J-S1 mESCs, Figure 5D",0.07112
same,"LogDC50, EGFP-IKZF","EGFP-IKZF; B6J-S1 mESCs, Figure 5D",-0.9014 μM
same,"Bottom, EGFP-IKZF",EGFP-IKZF; [3],0.1373
same,"LogDC50, EGFP-IKZF",EGFP-IKZF; [3],-1.87 μM
same,EGFP-IKZF amount compared to other reagents,"EGFP-IKZF; mESCs, 0.1 and 1 μM",significantly reduced
same,DC50,"EGFP-IKZF; B6J-S1 mESCs, Figure 5D",126 nM
same,DC50,EGFP-IKZF; [3],13.5 nM
same,"Bottom, EGFP-ZFP91",EGFP-ZFP91,0.1629
same,"LogDC50, EGFP-ZFP91",EGFP-ZFP91,-1.296 μM
same,DC50,EGFP-ZFP91,50.5 nM
same,"Bottom, EGFP-SD","EGFP-SD; B6J-S1 mESCs, Figure 5D",0.01996
same,"LogDC50, EGFP-SD","EGFP-SD; B6J-S1 mESCs, Figure 5D",-2.1 μM
same,"Bottom, EGFP-SD",EGFP-SD; [3],0.06758
same,"LogDC50, EGFP-SD",EGFP-SD; [3],-2.187 μM
same,DC50,"EGFP-SD; B6J-S1 mESCs, Figure 5D",7.94 nM
same,DC50,EGFP-SD; [3],6.5 nM
CC(C)C[C@@H](C=O)NC(=O)[C@H](CC(C)C)NC(=O)[C@H](CC(C)C)NC(=O)OCc1ccccc1 [MG-132] (Cbz-Leu-Leu-Leu-aldehyde),effect on IBR-induced EGFP degradation,[1],inhibited in a concentration-dependent manner
"NS(=O)(=O)OC[C@@H]1C[C@@H](n2ccc3c(N[C@H]4CCc5ccccc54)ncnc32)C[C@@H]1O [MNL4924, pevonedistat]",effect on IBR-induced EGFP degradation,[1],inhibited in a concentration-dependent manner
"N#Cc1ccc(N2CCN(Cc3ccc(COc4cccc5c4CN([C@H]4CCC(=O)NC4=O)C5=O)cc3)CC2)c(F)c1 [MZG, mezigdomide]","Bottom, EGFP-IKZF","EGFP-IKZF; B6J-S1 mESCs, Figure 5D",0.385
same,"LogDC50, EGFP-IKZF","EGFP-IKZF; B6J-S1 mESCs, Figure 5D",-1.952 μM
same,"Bottom, EGFP-IKZF",EGFP-IKZF; [3],0.1226
same,"LogDC50, EGFP-IKZF",EGFP-IKZF; [3],-3.265 μM
same,DC50,"EGFP-IKZF; B6J-S1 mESCs, Figure 5D",11.2 nM
same,DC50,EGFP-IKZF; [3],0.543 nM
same,degradation of EGFP-ZFP91,EGFP-ZFP91,efficiently degraded
same,"Bottom, EGFP-ZFP91",EGFP-ZFP91,0.03183
same,"LogDC50, EGFP-ZFP91",EGFP-ZFP91,-3.343 μM
same,DC50,EGFP-ZFP91,0.454 nM
same,"Bottom, EGFP-SD","EGFP-SD; B6J-S1 mESCs, Figure 5D",0.0126
same,"LogDC50, EGFP-SD","EGFP-SD; B6J-S1 mESCs, Figure 5D",-3.875 μM
same,"Bottom, EGFP-SD",EGFP-SD; [3],0.0164
same,"LogDC50, EGFP-SD",EGFP-SD; [3],-4.187 μM
same,DC50,"EGFP-SD; B6J-S1 mESCs, Figure 5D",0.133 nM
same,DC50,EGFP-SD; [3],0.0651 nM
CCOC(=O)c1ccc(N2NC(=O)/C(=C/c3ccc([N+](=O)[O-])o3)C2=O)cc1 [PYR-41],effect on IBR-induced EGFP degradation,[1],did not affect the degradation of EGFP
NS(=O)(=O)OC[C@H]1C[C@@H](Nc2ccnc3cc(-c4cccc(SC(F)(F)F)c4)nn23)[C@H](O)[C@@H]1O [TAK-243],effect on IBR-induced EGFP degradation,[1],inhibited in a concentration-dependent manner
CCN(CC)CCCC(C)Nc1ccnc2cc(Cl)ccc12 (centres unmarked) [chloroquine],effect on IBR-induced EGFP degradation,[1],but not by chloroquine
CC[C@H](C(=O)N1CCCC[C@H]1C(=O)O[C@H](CCc1ccc(OC)c(OC)c1)c1ccccc1OCC(=O)NCCCCCCOc1cccc2c1C(=O)N(C1CCC(=O)NC1=O)C2=O)c1cc(OC)c(OC)c(OC)c1 (some centres unmarked) [dTAG-13],blood-brain barrier (BBB) passage,[2],cannot cross the blood-brain barrier
